Earlier results in patent US20110301189A1, “STABLE PHARMACEUTICAL COMPOSITIONS OF RAPAMYCIN ESTERS” (FRESENIUS KABI ONCOLOGY LTD., priority 2010, published 2011).

Conditions: aqueous solvents

aqueous solubility: less than 1 μg/ml
Compound: COC1CC2CCC(C)C(O)(O2)C(=O)C(=O)N2CCCCC2C(=O)OC(C(C)CC2CCC(OC(=O)C(C)(CO)CO)C(OC)C2)CC(=O)C(C)/C=C(\C)C(O)C(OC)C(=O)C(C)CC(C)/C=C/C=C/C=C/1C (stereo not shown) [Rapamycin 42-ester with 3-hydroxy-2-(hydroxymethyl)-2-methylpropionic acid]
